Test results reported in ChEMBL document CHEMBL1140402, “SAR, species specificity, and cellular activity of cyclopentene dicarboxylic acid amides as DHODH inhibitors” (Bioorg Med Chem Lett, 2005).

Key:
[1] = molecular target: Dihydroorotate dehydrogenase (quinone), mitochondrial (Homo sapiens, UniProt Q02127); experiment: Inhibition of N-terminally truncated recombinant human dihydroorotate dehydrogenase using in vitro enzyme assay
[2] = Inhibitory activity (proliferation) against human peripheral blood mononuclear cells stimulated with Phytohemagglutininin-L; assay type: functional
[3] = molecular target: Dihydroorotate dehydrogenase (quinone), mitochondrial (Mus musculus, UniProt O35435); experiment: Inhibitory activity against mouse dihydroorotate dehydrogenase
Chain of Dihydroorotate dehydrogenase (quinone), mitochondrial (Mus musculus, UniProt O35435) (O35435 whole entry): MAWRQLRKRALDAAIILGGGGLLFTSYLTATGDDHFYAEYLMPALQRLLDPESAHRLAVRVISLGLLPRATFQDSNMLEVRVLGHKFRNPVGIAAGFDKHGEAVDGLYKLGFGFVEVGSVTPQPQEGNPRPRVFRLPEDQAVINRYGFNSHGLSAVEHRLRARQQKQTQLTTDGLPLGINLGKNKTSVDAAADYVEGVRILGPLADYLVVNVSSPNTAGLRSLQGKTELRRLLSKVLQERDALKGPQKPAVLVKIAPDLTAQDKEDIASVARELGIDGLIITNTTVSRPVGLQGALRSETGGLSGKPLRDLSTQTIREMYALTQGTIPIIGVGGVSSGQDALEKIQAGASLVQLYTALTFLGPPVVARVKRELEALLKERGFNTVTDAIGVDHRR

[4] = molecular target: Dihydroorotate dehydrogenase (quinone), mitochondrial (Rattus norvegicus, UniProt Q63707); experiment: Inhibitory activity against rat dihydroorotate dehydrogenase
Chain of Dihydroorotate dehydrogenase (quinone), mitochondrial (Rattus norvegicus, UniProt Q63707) (Q63707 whole entry): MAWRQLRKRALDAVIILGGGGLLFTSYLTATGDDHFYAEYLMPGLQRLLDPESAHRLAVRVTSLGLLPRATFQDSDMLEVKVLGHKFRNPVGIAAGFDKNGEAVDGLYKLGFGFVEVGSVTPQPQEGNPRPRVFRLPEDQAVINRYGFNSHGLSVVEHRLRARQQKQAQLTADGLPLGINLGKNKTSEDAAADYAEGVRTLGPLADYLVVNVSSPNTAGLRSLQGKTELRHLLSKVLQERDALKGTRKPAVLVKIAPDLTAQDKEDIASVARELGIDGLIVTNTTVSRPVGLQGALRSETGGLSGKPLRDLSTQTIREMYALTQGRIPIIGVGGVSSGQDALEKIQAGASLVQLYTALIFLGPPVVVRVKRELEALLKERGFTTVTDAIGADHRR

[5] = Inhibitory activity (proliferation) against human peripheral blood mononuclear cells stimulated with Phytohemagglutininin-L (value range: 0.175-0.327); assay type: functional

Chain of Dihydroorotate dehydrogenase (quinone), mitochondrial (Homo sapiens, UniProt Q02127) (Q02127 whole entry, the tested form may be a part): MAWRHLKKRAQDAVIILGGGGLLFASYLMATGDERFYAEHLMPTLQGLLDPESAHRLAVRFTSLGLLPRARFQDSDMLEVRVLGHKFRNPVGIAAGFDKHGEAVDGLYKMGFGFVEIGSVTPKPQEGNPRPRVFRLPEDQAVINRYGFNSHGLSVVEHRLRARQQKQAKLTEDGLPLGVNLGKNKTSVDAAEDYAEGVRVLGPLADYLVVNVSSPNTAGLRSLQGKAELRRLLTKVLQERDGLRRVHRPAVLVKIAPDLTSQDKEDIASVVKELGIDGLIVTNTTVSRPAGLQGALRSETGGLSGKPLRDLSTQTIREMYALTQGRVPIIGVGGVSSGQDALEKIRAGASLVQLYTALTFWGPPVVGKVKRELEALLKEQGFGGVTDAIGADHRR

## O=C(O)C1=C(C(=O)Nc2cc(Br)c(OCc3ccccc3)c(Br)c2)CSC1
[1]
  IC50: 0.173 µM

## O=C(O)C1=C(C(=O)Nc2ccc(-c3ccccc3)cc2)CS(=O)(=O)C1
[1]
  IC50: 3.8 µM

## O=C(O)C1=C(C(=O)Nc2ccc(OCc3c(F)cccc3Cl)c(Cl)c2)COC1
[2]
  IC50: 1 µM
[1]
  IC50: 0.041 µM
[3]
  IC50: 1.8 µM
[4]
  IC50: 1.2 µM

## COc1cccc(-c2ccc(NC(=O)C3=C(C(=O)O)CSC3)c(F)c2)c1
[1]
  IC50: 0.131 µM

## C/C(O)=C(\C#N)C(=O)Nc1ccc(C(F)(F)F)cc1 [TERIFLUNOMIDE]
[2]
  IC50: 108 µM

## O=C(O)C1=C(C(=O)Nc2ccc(OCc3ccccc3)cc2)CCC1
[1]
  IC50: 2 µM

## O=C(O)C1=C(C(=O)Nc2ccc(OCc3c(F)cccc3Cl)c(Cl)c2)CCC1
[1]
  IC50: 0.011 µM

## O=C(O)C1=C(C(=O)Nc2c(F)c(F)c(-c3cccc(OC(F)(F)F)c3)c(F)c2F)CCC1
[5]
  IC50: 0.327 µM
[3]
  IC50: 0.422 µM
[4]
  IC50: 0.078 µM

## O=C(O)C1=C(C(=O)Nc2cc(Br)c(OCc3ccccc3)c(Br)c2)CCC1
[1]
  IC50: 0.127 µM

## O=C(O)C1=C(C(=O)Nc2c(F)cc(-c3cccc(OC(F)(F)F)c3)cc2F)COC1
[1]
  IC50: 0.205 µM

## O=C(O)C1=C(C(=O)Nc2c(F)cc(-c3cccc(OC(F)(F)F)c3)cc2F)CCC1
[2]
  IC50: 15 µM
[3]
  IC50: 2 µM
[4]
  IC50: 0.504 µM

## COc1cccc(-c2ccc(NC(=O)C3=C(C(=O)O)CCC3O)c(F)c2)c1 (configuration not stated)
[1]
  IC50: 1.46 µM

## COc1cccc(-c2ccc(NC(=O)C3=C(C(=O)O)CCC3)c(F)c2)c1 [VIDOFLUDIMUS]
[2]
  IC50: 13 µM

## O=C(O)C1=C(C(=O)Nc2c(F)cc(-c3cccc(OC(F)(F)F)c3)cc2F)CSC1
[1]
  IC50: 0.015 µM

## O=C(O)C1=C(C(=O)Nc2ccc(-c3ccccc3)cc2)CSC1
[1]
  IC50: 0.667 µM

## COc1cccc(-c2ccc(NC(=O)C3=C(C(=O)O)C(O)CC3)c(F)c2)c1 (configuration not stated)
[1]
  IC50: 0.68 µM

## O=C(O)C1=C(C(=O)Nc2c(F)c(F)c(-c3cccc(OC(F)(F)F)c3)c(F)c2F)COC1
[1]
  IC50: 0.058 µM

## COc1cccc(-c2ccc(NC(=O)C3=C(C(=O)O)COC3)c(F)c2)c1
[1]
  IC50: 0.36 µM

## O=C(O)C1=C(C(=O)Nc2ccc(-c3ccccc3)cc2)CCC1
[4]
  IC50: 1.5 µM

## O=C(O)C1=C(C(=O)Nc2c(F)c(F)c(-c3cccc(OC(F)(F)F)c3)c(F)c2F)CSC1
[1]
  IC50: 0.004 µM
